Measurements as given in PMC11758220, “Identification of a Privileged Scaffold for Inhibition of Sterol Transport Proteins through the Synthesis and Ring Distortion of Diverse, Pseudo-Natural Products” (ACS Central Science, 2025).

Target: T1, Aster-A (Homo sapiens, UniProt Q96CP6)
T1 construct: Aster-A(359-547); GST (PreScission-cleavable) (N, cleaved yes); made in house; host or cells: E. coli OverExpress C41
T1 sequence (Q96CP6 359-547): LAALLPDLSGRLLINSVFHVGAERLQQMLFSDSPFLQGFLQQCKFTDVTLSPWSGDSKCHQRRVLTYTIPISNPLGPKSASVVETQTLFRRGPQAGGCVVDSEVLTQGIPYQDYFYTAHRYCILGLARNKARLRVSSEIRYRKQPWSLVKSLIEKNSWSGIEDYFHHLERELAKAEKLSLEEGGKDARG
Test: Differential scanning fluorimetry (DSF), Aster-A
Assay type: binding
Conditions: maximal thermal shift
Excerpt: Protein expression constructs
Human ASTER domains of Aster-A(359-547), -B(364-552) and -C(318-504) were subcloned into a pGEX-6p-2rbs vector, thus introducing the cloning artifact ‘GPLGS’.3 The pGEX-6P-1-GST-OSBP(377- […]
a gift from James H. Hurley (University of California).4 The pHIS_2His6_Thrombin_STARD4(2-205;C75S) plasmid was a gift from Young Jun Im (Chonnam National University).5 STARD5A was a gift from Nicola Burgess-Brown (Addgene plasmid #42392; http://n2t.net/addgene:42392; […]
Protein expression and purification […]
vectors including an N-terminal PreScission-cleavable glutathione S-transferase (GST)-tag were expressed in Escherichia coli (E. coli) OverExpress C41 in Terrific Broth (TB) medium for 16 h at 18 °C after the induction with 0.1 mM isopropyl β-D-1-thiogalactopyranoside (IPTG). Cells were harvested at 3500 × g for 15 minutes and lysed by sonication in buffer containing 50 mM HEPES pH 7.5, 300 mM NaCl, 10 %v/v glycerol, 5 mM dithiothreitol (DTT), 0.1 %v/v Triton X-100 and protease inhibitor mix HP plus (Serva). The lysate was purified by affinity chromatography on a GSTrap FF column (Cytiva) using an ÄKTA Start (Cytiva) in buffer containing 50 mM HEPES pH 7.5, 300 mM NaCl, 10 %v/v glycerol, 5 mM DTT and 0.01 %v/v Triton X-100. The GST-tag was cleaved overnight on the column at 4 °C. […]

| SMILES | Aster-A (DSF) ΔTmmax |
| --- | --- |
| CC12CCC3CC1CCC21C(=Nc2ccc(N4CCOCC4)cc21)O3 (single isomer, unassigned; (-)) [(−)-19a] | 7.5 °C |
| CC(C)(C)OC(=O)N1CCN(c2ccc3c(c2)C24CCC5CC(CCC52C)OC4=N3)CC1 (centres unmarked) [Compound 19e] | 11.8 °C |
